Results as given in patent publication US9353090B2, “Heterocyclic carboxylic acids as activators of soluble guanylate cyclase” (Boehringer Ingelheim International GmbH, priority 2014, dated 2016).
pEC50: −log10 of the molar value. ≈ marks a conversion by molar mass, not a printed value.

What was measured:
[1] = Human liver microsome (HLM) metabolic stability assay; format: in vitro ADME; conditions: human liver microsomes
Summary of the method: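 Compound at 1 uM incubated with human liver microsomes at 37° C. for 60 min after NADPH addition. Aliquots quenched in cold acetonitrile at 0, 5, 15, 30 and 60 min and analysed by LC/MS/MS. t1/2 from ln(% remaining) vs time slope; CLint, CLh and % Qh derived from it (n=1).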

physchem = conditions: kinetic from dmso stock
[2] = molecular target: human soluble guanylate cyclase alpha 1 and beta 1 subunits (sGC) (Homo sapiens (Human), UniProt Q02108+Q02153); assay: sGC cellular activator assay (cGMP, HTRF), in the presence and absence of 50% human serum; format: cell-based; conditions: CHO cells stably expressing human sGC alpha 1/beta 1, preincubated with 40 microM ODQ; cGMP by HTRF; Table 2 does not state whether with or without 50% human serum
human soluble guanylate cyclase alpha 1 and beta 1 subunits (sGC), sequence (Q02108 whole entry partner): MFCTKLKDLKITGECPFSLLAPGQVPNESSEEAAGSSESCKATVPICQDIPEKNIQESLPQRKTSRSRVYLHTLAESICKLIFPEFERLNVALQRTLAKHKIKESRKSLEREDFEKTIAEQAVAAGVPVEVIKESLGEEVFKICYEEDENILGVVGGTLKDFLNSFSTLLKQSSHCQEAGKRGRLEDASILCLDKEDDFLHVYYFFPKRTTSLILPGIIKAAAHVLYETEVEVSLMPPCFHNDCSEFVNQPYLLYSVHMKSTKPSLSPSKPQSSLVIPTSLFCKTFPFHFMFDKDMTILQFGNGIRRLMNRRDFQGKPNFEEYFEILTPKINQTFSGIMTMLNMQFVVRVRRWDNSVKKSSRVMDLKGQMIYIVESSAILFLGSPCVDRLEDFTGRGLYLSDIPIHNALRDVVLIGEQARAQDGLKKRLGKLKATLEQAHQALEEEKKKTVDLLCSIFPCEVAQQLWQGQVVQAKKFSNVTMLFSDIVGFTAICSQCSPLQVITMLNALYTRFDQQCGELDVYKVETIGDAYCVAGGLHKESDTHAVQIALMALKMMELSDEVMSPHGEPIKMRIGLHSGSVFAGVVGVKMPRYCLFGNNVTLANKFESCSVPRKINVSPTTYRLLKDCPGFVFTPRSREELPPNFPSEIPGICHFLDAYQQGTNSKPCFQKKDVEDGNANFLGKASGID
human soluble guanylate cyclase alpha 1 and beta 1 subunits (sGC), sequence (Q02153 whole entry): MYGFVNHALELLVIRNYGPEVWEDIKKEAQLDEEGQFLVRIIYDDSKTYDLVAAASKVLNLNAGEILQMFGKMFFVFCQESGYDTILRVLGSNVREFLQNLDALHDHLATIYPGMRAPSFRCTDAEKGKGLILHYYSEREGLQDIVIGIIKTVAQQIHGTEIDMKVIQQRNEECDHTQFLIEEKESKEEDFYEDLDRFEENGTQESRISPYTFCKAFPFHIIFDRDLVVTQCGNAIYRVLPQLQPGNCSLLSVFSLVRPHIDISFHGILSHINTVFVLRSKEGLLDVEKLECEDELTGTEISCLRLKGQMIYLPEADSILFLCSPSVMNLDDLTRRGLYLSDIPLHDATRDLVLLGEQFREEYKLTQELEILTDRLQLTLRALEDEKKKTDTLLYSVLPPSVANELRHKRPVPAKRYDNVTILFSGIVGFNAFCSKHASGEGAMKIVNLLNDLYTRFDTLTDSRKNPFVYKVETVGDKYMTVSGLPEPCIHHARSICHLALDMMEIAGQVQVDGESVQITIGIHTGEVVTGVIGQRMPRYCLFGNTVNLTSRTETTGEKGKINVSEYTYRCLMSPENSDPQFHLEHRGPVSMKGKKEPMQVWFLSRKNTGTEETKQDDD
Summary of the method: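 Heme-oxidized conditions: ODQ (40 microM, 1 h) pretreatment of CHO cells stably expressing human α1/β1 sGC, in buffer containing 0.1% BSA and IBMX.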

[3] = pH 2.2, aqueous buffer, Solubility (pH 2.2)
[4] = pH 4.5, aqueous buffer, Solubility (pH 4.5)
[5] = pH 6.8, aqueous buffer, Solubility (pH 6.8)

Compound | Metabolic stability (Qh %), % hepatic blood flow [1] [%] | solubility at 24 h (physchem; [3]) [mg/mL] | solubility at 24 h (physchem; [4]) [mg/mL] | solubility at 24 h (physchem; [5]) [mg/mL] | pEC50 [2]
Cc1ccc(OCc2ccc3c(c2)CCN(CC2COCCO2)C3)c(-c2csc(N3CC[C@@]4(C(=O)O)C[C@H]4C3)n2)c1 (some centres unmarked) [Compound 112] | <24 | 0.12 (≈ 208 µM) | 0.055 (≈ 95.5 µM) | 0.0081 (≈ 14.1 µM) | 8.70
Cc1c(COc2ccccc2-c2cccc(N3CC[C@@]4(C(=O)O)C[C@H]4C3)n2)ccc2c1CCN(CC1COCCO1)C2 (some centres unmarked) [Compound 5] | 35 | 0.16 (≈ 281 µM) | 0.14 (≈ 246 µM) | 0.079 (≈ 139 µM) | 8.52
Cc1ccc(OCc2cc(C)c3c(c2)CCN(CC2COCCO2)C3)c(-c2csc(N3CC[C@@]4(C(=O)O)C[C@H]4C3)n2)c1 (some centres unmarked) [Compound 120] | <24 | 0.13 (≈ 220 µM) | 0.027 (≈ 45.8 µM) | 0.0022 (≈ 3.73 µM) | 8.22
Cc1cc(COc2c(C)cccc2-c2csc(N3CC[C@@]4(C(=O)O)C[C@H]4C3)n2)cc2c1CN(C1CCOC1)CC2 (some centres unmarked) [Compound 95] | 49 | 0.12 (≈ 214 µM) | 0.066 (≈ 118 µM) | 0.031 (≈ 55.4 µM) | 8.70
Cc1cccc(-c2cccc(N3CC[C@H](C(=O)O)[C@@H]4OCCC[C@H]43)n2)c1OCc1ccc2c(c1C)CCN(C1COC1)CC2 [Compound 336] | 32 | 0.0699 (≈ 117 µM) | 0.0376 (≈ 62.9 µM) | 0.03 (≈ 50.2 µM) | 7.27
COC[C@H]1N(c2cccc(-c3cccc(C(F)(F)F)c3OCc3cc(C)c4c(c3)CCN(C3CCOCC3)C4)n2)C[C@@H]2C[C@@]21C(=O)O [Compound 220] | 34 | 0.167 (≈ 256 µM) | 0.136 (≈ 209 µM) | 0.133 (≈ 203 µM) | 8.05
CO[C@H]1CN(c2nc(-c3cc(C)ccc3OCc3cc(C)c4c(c3)CCN(C3CCOCC3)C4)cs2)CC[C@H]1C(=O)O [Compound 180] | <24 | 0.12 (≈ 203 µM) | 0.0043 (≈ 7.27 µM) | 0.00073 (≈ 1.23 µM) | 7.34
Cc1c(COc2ccccc2-c2cccc(N3CC[C@@]4(C(=O)O)C[C@H]4C3)n2)ccc2c1CCNC2 [Compound 305] | 30 | 0.108 (≈ 231 µM) | 0.0812 (≈ 173 µM) | 0.0007 (≈ 1.49 µM) | 6.47
Cc1ccc(OCc2ccc3c(c2C)CCN(C2COC2)CC3)c(-c2csc(N3C[C@@H]4C[C@]4(C(=O)O)C3)n2)c1 [Compound 149] | <24 | 0.098 (≈ 180 µM) | 0.037 (≈ 67.8 µM) | 0.035 (≈ 64.1 µM) | 7.47
CO[C@@H]1CN(c2cccc(-c3cccc(C)c3OCc3ccc4c(c3)C(C)(C)CN(C3COC3)CC4)n2)CC[C@@H]1C(=O)O [Compound 326] | 59 | 0.129 (≈ 220 µM) | 0.0911 (≈ 156 µM) | 0.0716 (≈ 122 µM) | 9.00
CO[C@H]1CN(c2cccc(-c3cccc(C)c3OCc3ccc4c(c3C)CCN(C3CCOCC3)C4)n2)CC[C@H]1C(=O)O [Compound 65] | 31 | 0.13 (≈ 222 µM) | 0.11 (≈ 188 µM) | 0.08 (≈ 137 µM) | 7.54
CCO[C@@H]1CN(c2cccc(-c3cccc(C)c3OCc3ccc4c(c3C)CCN(C3CCOCC3)CC4)n2)CC[C@@H]1C(=O)O [Compound 239] | 87 | 0.126 (≈ 205 µM) | 0.123 (≈ 200 µM) | 0.117 (≈ 191 µM) | 8.30
Cc1ccc(OCc2cc(C)c3c(c2)CCN(C2CCCOC2)C3)c(-c2csc(N3CC[C@@]4(C(=O)O)C[C@H]4C3)n2)c1 (mixture of isomers) [Compound 121] | <24 | 0.11 | 0.014 | 0.00069 | 8.00
Cc1cccc(-c2csc(N3C[C@@H]4C[C@]4(C(=O)O)C3)n2)c1OCc1ccc2c(c1C)CCN(C1CCC1)C2 [Compound 137] | 32 | 0.1 (≈ 189 µM) | 0.071 (≈ 134 µM) | 0.051 (≈ 96.3 µM) | 7.17
CO[C@H]1CN(c2cccc(-c3cccc(C)c3OCc3ccc4c(c3C)CCN(C3COC3)CC4)n2)CC[C@@H]1C(=O)O [Compound 289] | <24 | 0.123 (≈ 215 µM) | 0.0824 (≈ 144 µM) | 0.0699 (≈ 122 µM) | 6.63
COC[C@H]1N(c2cccc(-c3cccc(C)c3OCc3ccc4c(c3F)CCN(C3CCOC3)CC4)n2)C[C@@H]2C[C@@]21C(=O)O (some centres unmarked) [Compound 268] | 40 | 0.119 (≈ 198 µM) | 0.0886 (≈ 147 µM) | 0.0578 (≈ 96.1 µM) | 8.40
Cc1ccc(OCc2ccc3c(c2)CCN(C2CCOCC2)C3)c(-c2cccc(N3CC[C@@]4(C(=O)O)C[C@H]4C3)n2)c1 [Compound 16] | 28 | 0.13 (≈ 235 µM) | 0.096 (≈ 173 µM) | 0.041 (≈ 74 µM) | 8.10
Cc1cc(COc2c(C)cccc2-c2csc(N3CC[C@@]4(C(=O)O)C[C@H]4C3)n2)cc2c1CN(CC1COCCO1)CC2 (some centres unmarked) [Compound 91] | <24 | 0.12 (≈ 203 µM) | 0.068 (≈ 115 µM) | 0.041 (≈ 69.5 µM) | 8.52
Cc1ccc(OCc2ccc3c(c2)CCN(C2CCOCC2)C3)c(-c2csc(N3C[C@@H]4C[C@]4(C(=O)O)C3)n2)c1 [Compound 145] | <24 | 0.11 (≈ 202 µM) | 0.062 (≈ 114 µM) | 0.028 (≈ 51.3 µM) | 6.79
Cc1cccc(-c2cccc(N3C[C@@H]4C[C@]4(C(=O)O)C3)n2)c1OCc1ccc2c(c1C)CCN(C1CCOCC1)C2 [Compound 21] | <24 | 0.12 (≈ 217 µM) | 0.11 (≈ 199 µM) | 0.07 (≈ 126 µM) | 7.96
Cc1cc(COc2c(C)cccc2-c2csc(N3C[C@@H]4C[C@]4(C(=O)O)C3)n2)cc2c1CN(C1CCOCC1)CC2 [Compound 140] | <24 | 0.1 (≈ 179 µM) | 0.073 (≈ 130 µM) | 0.06 (≈ 107 µM) | 8.30
Cc1cc(COc2c(C)cccc2-c2csc(N3C[C@@H]4C[C@]4(C(=O)O)C3)n2)cc2c1CN(C1COC1)CC2 [Compound 139] | <24 | 0.096 (≈ 181 µM) | 0.058 (≈ 109 µM) | 0.059 (≈ 111 µM) | 8.15
Cc1cc(COc2c(C)cccc2-c2csc(N3CC[C@@]4(C(=O)O)C[C@H]4C3)n2)c(C)c2c1CN(C1CCOCC1)CC2 [Compound 101] | 61 | 0.12 (≈ 204 µM) | 0.079 (≈ 134 µM) | 0.038 (≈ 64.6 µM) | 8.52
CCO[C@@H]1CN(c2cccc(-c3cccc(Cl)c3OCc3cc(C)c4c(c3)CCN(C3CCOCC3)C4)n2)CC[C@@H]1C(=O)O [Compound 259] | 44 | 0.15 (≈ 241 µM) | 0.0868 (≈ 140 µM) | 0.058 (≈ 93.5 µM) | 7.19
Cc1c(COc2ccccc2-c2cccc(N3CC[C@@]4(C(=O)O)C[C@H]4C3)n2)ccc2c1CCN(C1CCOCC1)C2 [Compound 6] | 54 | 0.16 (≈ 289 µM) | 0.13 (≈ 235 µM) | 0.06 (≈ 108 µM) | 8.52
